Laboratory results from US20240408222A1, “COMPOUNDS, PHARMACEUTICAL COMPOSITIONS, AND METHODS FOR THE TREATMENT, PREVENTION, OR MANAGEMENT OF HYPERPRO[…]” (VINCERX PHARMA GMBH, priority 2021, published 2024).
Like-named read-outs stand apart in the source and are kept apart here.

Experiments:
SUM149 [1] = experiment: Cytotoxicity in vitro (MTT) in presence/absence of elastase; assay type: cell-based; conditions: 72 h
Procedure: (§1) Cultivation of cells was performed according to standard procedures with the media recommended by the provider. The cells, in a total volume of 100 μL, were seeded in a 96-well plate with a white bottom (#3610). After a 24 h incubation period at 37° C. and […], the medium was exchanged by adding 90 μL fresh medium. The treatment started by adding the test compound in 10 μL of culture medium to the cells in triplicates. Concentrations ranging from 10^−5 M to 10^−13 M were chosen. Two identically treated sets of samples were prepared. One set was treated with the test compound alone, whereas to the second set the compound and 10 nM elastase was added followed by a 72 h incubation period at 37° C. and […]. The proliferation was detected using the MTT assay (ATCC). At the end of the incubation period the MTT reagent was added to all samples for 4 h. Lysis of the cells followed by addition of the detergent was done overnight. The formed dye was detected at 570 nm. The proliferation of untreated but otherwise identically handled cells was define as the 100% value.

[2] = 37° C.
Procedure: Method for measurement of stability in rat and human plasma: 1 mg of the test compound was dissolved in 0.5 ml acetonitrile/dimethylsulfoxide 1:1. For complete dissolution the HPLC vial was shaken and sonicated. While vortexing, 20 μl of this solution was added to 1 ml 37° C. warm plasma. After 10 min, 0.5 h, 1 h, 1.5 h, 2 h, and 4 h, the assay was stopped by adding 100 μl of the compound plasma solution to a vial containing 300 μl acetonitrile/buffer pH 3 (80:20) at RT. The mixture was centrifuged at 5000 rpm for 10 minutes. The supernatant was analyzed by HPLC to determine the amount of the test compound and up to two byproducts. To values resulted from a processed sample immediately taken after vortexing with plasma at RT. The peak areas (in percentage) were used for quantification. All data was given as percent area of the initial compound at to. The results of these assays are shown in FIG. 1 and FIG. 2 for rat and human plasma, respectively.

[3] = buffer pH 7.4, 37° C.
Procedure: Method for measurement of stability in buffer: 0.15 mg of the test compound was dissolved in 0.1 ml dimethylsulfoxide and 0.4 ml acetonitrile. For complete dissolution, the HPLC vial with the sample solution was shaken and sonicated. Then 1.0 ml of the respective buffer solution was added, and the sample was vortexed. The sample solution was analysed by HPLC to determine the amount of the test compound and up to two byproducts at a particular time over a period of 24 h at 37° C. […] The peak areas (in percentage) were used for quantification.

NCI H292 [4] = experiment: Cytotoxicity assay (Version 2, automated, AC50) with/without neutrophil elastase; assay type: cell-based, human; conditions: NCI H292, with (+) neutrophil elastase, Version 2, activity concentration at −50%
Outline: (§2)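 Metabolic activity is measured by MTT dye formation (570 nm) after cells are exposed for 72 h to compound alone or compound plus 10 nM elastase, spanning 10^−5 to 10^−13 M in triplicate. A 4-parameter Hill fit of normalized data yields the AC50.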

HT29 [5] = experiment: as above; assay type: cell-based, human; conditions: Version 2, activity concentration at −50%
Outline: as §2

786-O [6] = experiment: as above; assay type: cell-based, human; conditions: Version 2, activity concentration at −50%
Outline: as §2

NCI H292 [7] = experiment: Cytotoxicity in vitro (MTT) in presence/absence of elastase; assay type: cell-based, human; conditions: 72 h
Procedure: as §1

HT29 [8] = experiment: as above; assay type: cell-based, human; conditions: 72 h
Procedure: as §1

786-O [9] = experiment: as above; assay type: cell-based, human; conditions: 72 h
Procedure: as §1

SUM149 [10] = experiment: Cytotoxicity assay (Version 2, automated, AC50) with/without neutrophil elastase; assay type: cell-based; conditions: Version 2, activity concentration at −50%
Outline: as §2

[11] = SUM149, without (−) neutrophil elastase
[12] = HT29, without (−) neutrophil elastase
[13] = without (−) neutrophil elastase

Which results are given for `CCCNC(=O)Nc1cccc(S(=O)(=O)Nc2cccc([C@@H](CC(=O)[O-])NC(=O)Nc3ccc(NC(=O)NCCOCCOCCOCCC(=O)N[C@@H](CC(=O)[O-])C(=O)N4CCC[C@H]4C(=O)N[C@H](C(=O)N=[S@@](C)(=O)Cc4cc5cc(c4)OCCCCOc4cc(F)ccc4-c4nc(ncc4F)N5)C(C)C)cc3)c2)c1.[Na+].[Na+]` [Compound 3]?
IC50 (SUM149 [1]; SUM149, with (+) 10 nM neutrophil elastase): ≤ 1 nM; IC50 (SUM149 [1]; [11]): > 100 nM; time stable in plasma (no significant degradation) ([2]; human plasma): at least 4 h; time stable in plasma (no significant degradation) ([2]; rat plasma): at least 4 h; time stable in buffer (no significant degradation) [3]: at least 24 h; AC50 (NCI H292 [4]): 11 to 100 nM; AC50 (HT29 [5]; HT29, with (+) neutrophil elastase): 11 to 100 nM; AC50 (HT29 [5]; [12]): > 1000 nM; AC50 (786-O [6]; with (+) neutrophil elastase): 11 to 100 nM; AC50 (786-O [6]; [13]): > 1000 nM; IC50 (NCI H292 [7]; NCI H292, with (+) 10 nM neutrophil elastase): ≤ 1 nM; IC50 (NCI H292 [7]; NCI H292, without (−) neutrophil elastase): > 100 nM; IC50 (HT29 [8]; HT29, with (+) 10 nM neutrophil elastase): ≤ 1 nM; IC50 (HT29 [8]; [12]): > 100 nM; IC50 (786-O [9]; with (+) 10 nM neutrophil elastase): ≤ 1 nM; IC50 (786-O [9]; [13]): > 100 nM; AC50 (SUM149 [10]; SUM149, with (+) neutrophil elastase): 11 to 100 nM; AC50 (SUM149 [10]; [11]): 100 to 1000 nM
